Measurements: the NIST ThermoML archive (doi:10.1016/j.jct.2013.02.017)

Test: molar heat capacity at constant pressure
Conditions: 101.33 kPa, relaxation calorimetry - Quantum Design PPMS

O=P([O-])([O-])[O-].[Fe+3] [iron(III) phosphate]
molar heat capacity at constant pressure [J/K/mol]
Conditions | Crystal 1 | Crystal 2
1 K | – | 0.003782
1.886 K | – | 0.04093
1.997 K | – | 0.04782
2.181 K | – | 0.0617
2.476 K | – | 0.09126
2.736 K | – | 0.127
3 K | – | 0.18
3.028 K | – | 0.1804
3.36 K | – | 0.2601
3.752 K | – | 0.3807
4 K | – | 0.4766
4.187 K | – | 0.5478
4.659 K | – | 0.7673
4.845 K | – | 0.8619
5 K | – | 0.9387
5.18 K | – | 1.047
5.77 K | – | 1.391
6 K | – | 1.539
6.414 K | – | 1.814
6.798 K | – | 2.084
7 K | – | 2.22
7.132 K | – | 2.309
7.933 K | – | 2.865
8 K | – | 2.913
8.77 K | – | 3.466
8.832 K | – | 3.516
9 K | – | 3.635
10 K | – | 4.367
10.05 K | – | 4.403
11 K | – | 5.121
11.15 K | – | 5.235
12 K | – | 5.897
12.38 K | – | 6.189
12.94 K | – | 6.616
13 K | – | 6.67
13.73 K | – | 7.26
14 K | – | 7.443
14.43 K | – | 7.762
14.95 K | – | 8.294
15 K | – | 8.323
15.43 K | – | 8.719
15.94 K | – | 9.181
16 K | – | 9.243
16.43 K | – | 9.674
16.95 K | – | 10.23
17 K | – | 10.28
17.45 K | – | 10.8
17.84 K | – | 11.2
18 K | – | 11.49
18.13 K | – | 11.71
18.45 K | – | 12.08
18.82 K | – | 12.45
19 K | – | 12.58
19.22 K | – | 12.73
19.66 K | – | 13.2
19.99 K | – | 13.49
20 K | – | 13.57
20.25 K | – | 13.97
20.64 K | – | 14.43
20.82 K | – | 14.73
21.1 K | – | 15.1
21.5 K | – | 15.55
21.71 K | – | 16.04
21.92 K | – | 16.34
22.11 K | – | 16.68
22.32 K | – | 17.08
22.51 K | – | 17.48
22.73 K | – | 17.86
22.92 K | – | 18.38
23.11 K | – | 18.7
23.36 K | – | 19.34
23.55 K | – | 19.72
23.76 K | – | 20.25
23.95 K | – | 20.84
24.15 K | – | 21.42
24.38 K | – | 21.93
24.61 K | – | 22.61
24.87 K | – | 23.08
25 K | 23.11 | 23.11
25.08 K | 23.28 | –
25.18 K | 22.8 | –
25.4 K | 21.44 | –
25.43 K | 20.48 | –
25.62 K | 18.26 | –
25.68 K | 17.59 | –
25.72 K | 17.26 | –
25.94 K | 15.76 | –
25.99 K | 15.49 | –
26.15 K | 14.92 | –
26.41 K | 14.37 | –
26.94 K | 13.87 | –
27.46 K | 13.73 | –
27.94 K | 13.72 | –
28.45 K | 13.76 | –
28.97 K | 13.89 | –
29.45 K | 14.01 | –
29.98 K | 14.01 | –
30 K | 14.02 | –
30.99 K | 14.13 | –
32.01 K | 14.38 | –
33.01 K | 14.68 | –
34.02 K | 15.04 | –
35 K | 15.41 | –
35.05 K | 15.43 | –
36.05 K | 15.83 | –
37.06 K | 16.23 | –
38.07 K | 16.64 | –
39.08 K | 17.07 | –
40 K | 17.52 | –
40.08 K | 17.53 | –
41.1 K | 17.99 | –
42.11 K | 18.43 | –
43.12 K | 18.88 | –
44.12 K | 19.31 | –
45 K | 19.76 | –
45.14 K | 19.79 | –
46.14 K | 20.26 | –
47.17 K | 20.76 | –
48.16 K | 21.23 | –
49.19 K | 21.7 | –
50 K | 22.04 | –
50.22 K | 22.15 | –
53.7 K | 23.85 | –
55 K | 24.35 | –
59.64 K | 26.61 | –
60 K | 26.66 | –
65 K | 28.97 | –
66.28 K | 29.55 | –
70 K | 31.26 | –
73.59 K | 32.72 | –
75 K | 33.49 | –
80 K | 35.67 | –
81.69 K | 36.3 | –
85 K | 37.77 | –
90 K | 39.9 | –
90.72 K | 40.16 | –
95 K | 42.03 | –
100 K | 44.11 | –
100.73 K | 44.09 | –
110 K | 48.06 | –
110.86 K | 47.98 | –
120 K | 51.77 | –
120.94 K | 51.73 | –
130 K | 55.28 | –
131.04 K | 55.47 | –
140 K | 58.62 | –
141.13 K | 58.97 | –
150 K | 61.85 | –
151.25 K | 62.31 | –
160 K | 64.98 | –
161.4 K | 65.71 | –
170 K | 68.05 | –
171.44 K | 68.87 | –
180 K | 71.06 | –
181.6 K | 71.84 | –
190 K | 74.02 | –
191.71 K | 74.76 | –
200 K | 76.93 | –
201.83 K | 77.69 | –
210 K | 79.79 | –
211.94 K | 80.42 | –
220 K | 82.59 | –
222.06 K | 83.12 | –
230 K | 85.33 | –
232.15 K | 85.84 | –
240 K | 88 | –
242.24 K | 88.09 | –
250 K | 90.6 | –
252.28 K | 90.69 | –
260 K | 93.11 | –
262.36 K | 92.91 | –
270 K | 95.55 | –
272.53 K | 95.97 | –
273.15 K | 96.3 | –
280 K | 97.9 | –
282.61 K | 99.14 | –
290 K | 100.17 | –
292.62 K | 101.41 | –
298.15 K | 101.96 | –
300 K | 102.35 | –
302.73 K | 102.84 | –
